From US5330992A, “1-cyclopropyl-4-pyridyl-quinolinones” (priority 1992, dated 1994) come the findings set out here.

Series [1] can be described thus: In vivo antitumor assay, Mam16C(sc). More on the design: species or system mouse. To be noted: mouse, in vivo, drug route iv, qd 1, bid 2,3. An excerpt: (§1) Mice: Inbred: C3H/He and NCR-nu; and Hybrids: B6D2Fl (C57BL/6 females X DBA/2 males, CD2Fl (Balb/c females X DBS/2 males) and B6x C3fl (C57BL/6 x C3H) were bred at Wayne State University from strained obtained from the Frederick Cancer Research Facility, Frederick, Md. or purchased from commercial suppliers.
(§2) Tumors: Murine Tumor: P388 and an adriamycin-resistant (ADR) subline P388/ADR leukemia and the following transplantable solid tumors of mice were used for in Vivo testing: B16 melanoma (B16), pancreatic ductal adenocarcinoma No. 03 (Panc 03), colon adenocarcinoma No. 38 (colo 38), mammary ductal adenocarcinoma No. 16/C (Mam16) and an adriamycin-resistantsubline Mam16C/ADR. Human tumor: A single human tumor, mammary carcinoma MX-1 (MX1) was used for in vivo testing. All tumors are in the Developmental Therapeutics Program frozen tumor respository, maintained by the Biological Testing Branch, Frederick Md. Each has a detailed description, code identification number, and list of references at the National Tumor Repository. […]
(§3) Quantitative end points used assess antitumor activity included % Increased Life Span (% ILS), Tumor Cell Kill (Log10 kill), and Tumor Growth Inhibition (T/C). […]
(§4) The log10 cell kill was calculated from the following formula: [formula] where T-C is the tumor difference in the median day of death between the treated (T) and the control (C) groups and Td is the tumor doubling time (in days), the latter estimated from the best fit straight line from a log-linear growth plot of the control-group tumors in exponential growth. […]
(§5) Tumors were measured with a caliper once or twice weekly (as needed) until either tumors exceeded 1600 mg or cure was assured. […] When the control group tumors reached approximately 750-1500 mg in size (median of group), the median tumor weight of each group was determined (including zeros). […] The % T/C was calculated from the following formula for solid murine tumor models: [formula] where T and C are median tumor weights of the treatment and control groups, respectively. […]

Series [2] relates to mammary ductal adenocarcinoma No. 16/C (Mam16). In words: In vivo antitumor assay, Mam16C(sc). Also noted: species or system mouse. To be noted: drug route iv.
Description: as §1, §2, §3, §4, §5

The compound `Cc1cc(-c2c(F)cc3c(=O)c(Cc4c(O)cccc4O)cn(C4CC4)c3c2F)cc(C)n1` [Example 26, 1-Cyclopropyl-6,8-difluoro-7-[2,6-dimethyl-4-pyridinyl]-3-[2,6-dihydroxyphenylmethyl]-1,4-dihydroquinoline-4-one] came in with an MTD in series [1] of 15 mg/kg. This compound also registered a T/C % in series [2] (qd 1, bid 2,3) of 28%. The “LOG KILL” value in series [2] (qd 1, bid 2,3, log10 cell kill) is 0.90.
